From ChEMBL document CHEMBL1148881 (Bioorg Med Chem Lett, 2007)

Experiments:
[1] = target: T1, Peroxisome proliferator-activated receptor alpha (Homo sapiens, UniProt Q07869)
T1 sequence (Q07869 whole entry): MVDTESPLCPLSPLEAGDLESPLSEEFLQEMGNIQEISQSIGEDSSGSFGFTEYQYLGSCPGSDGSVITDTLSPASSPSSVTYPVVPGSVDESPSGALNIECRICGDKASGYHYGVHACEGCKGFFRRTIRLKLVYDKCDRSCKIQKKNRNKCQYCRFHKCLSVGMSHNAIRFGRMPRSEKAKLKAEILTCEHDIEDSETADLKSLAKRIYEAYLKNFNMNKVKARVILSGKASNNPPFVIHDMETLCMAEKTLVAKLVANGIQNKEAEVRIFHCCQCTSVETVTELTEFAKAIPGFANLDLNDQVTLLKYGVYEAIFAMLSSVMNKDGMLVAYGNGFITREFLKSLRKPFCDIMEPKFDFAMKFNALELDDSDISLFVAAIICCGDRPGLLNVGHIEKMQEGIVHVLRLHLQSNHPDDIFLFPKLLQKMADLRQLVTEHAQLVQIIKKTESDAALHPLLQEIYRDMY
Description: Displacement of [3H]2-(4-(2-(3-(2,4-difluorophenyl)-1-heptylureido)ethyl)phenoxy)-2-methylbutanoic acid from human PPARalpha after 30 mins by SPA assay

[2] = target: T2, Peroxisome proliferator-activated receptor delta (Homo sapiens, UniProt Q03181); assay type: functional, cell-based, HepG2
T2 sequence (Q03181 whole entry): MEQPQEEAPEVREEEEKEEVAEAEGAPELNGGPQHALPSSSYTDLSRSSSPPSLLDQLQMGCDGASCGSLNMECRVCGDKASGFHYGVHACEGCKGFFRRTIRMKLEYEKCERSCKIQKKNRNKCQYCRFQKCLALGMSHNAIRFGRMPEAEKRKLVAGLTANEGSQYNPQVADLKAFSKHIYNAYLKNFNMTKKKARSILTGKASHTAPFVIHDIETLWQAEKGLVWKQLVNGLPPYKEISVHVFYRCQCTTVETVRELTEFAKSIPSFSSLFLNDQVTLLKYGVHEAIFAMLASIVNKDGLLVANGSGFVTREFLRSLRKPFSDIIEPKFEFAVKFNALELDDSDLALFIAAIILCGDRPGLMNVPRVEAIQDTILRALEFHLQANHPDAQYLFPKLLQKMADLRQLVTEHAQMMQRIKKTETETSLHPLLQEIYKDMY
Description: Agonist activity at human PPARdelta expressed in HepG2 cells after 16 hrs by luciferase reporter gene assay

[3] = target: T2, Peroxisome proliferator-activated receptor delta
Description: Displacement of [3H]2-(4-(3-(4-acetyl-3-hydroxy-2 propyl-phenoxy)propoxy)phenoxy)acetic acid from human PPARdelta after 30 mins by SPA assay

Structure (SMILES) | IC50 [1] [nM] | IC50 [2] [nM] | IC50 [3] [nM] | EC50 [2] [nM]
O=C(O)COc1ccc(SCc2ccc(OCc3ccc(C(F)(F)F)cc3)cc2)c2c1CCCO2 | 791 | – | – | –
Cc1cc(SCc2ccc(OCc3ccc(C(F)(F)F)cc3)cc2)c2c(c1OCC(=O)O)CCC2 | 311 | > 10000 | 586 | –
O=C(O)COc1ccc(SCc2ccc(OCc3ccc(C(F)(F)F)cc3)cc2)c2c1CCC2 | 1200 | – | – | –
O=C(O)COc1ccc(SCc2ccc(OCc3cc(Cl)ccc3Cl)cc2)c2c1CCC2 | 4190 | – | 69 | 585
O=C(O)COc1ccc(SCc2ccc(OCc3ccc(F)cc3)cc2)c2c1CCC2 | > 10000 | – | 191 | 13600
O=C(O)COc1ccc(SCc2cc(F)ccc2OCc2ccc(C(F)(F)F)cc2)c2c1CCC2 | > 10000 | – | 1.7 | 70
O=C(O)COc1ccc(SCc2ccc(OCc3ccc(OC(F)(F)F)cc3)cc2)c2c1CCC2 | 672 | – | 76 | 530
COc1cc(OCC(=O)O)c(C)cc1SCc1ccc(OCc2ccc(C(F)(F)F)cc2)cc1 | 4.7 | – | – | –
Cc1cc(SCc2ccc(OCc3ccc(C(F)(F)F)cc3)cc2)ccc1OCC(=O)O | 578 | – | 19 | 252
O=C(O)COc1ccc(SCc2ccc(OCc3ccc(Cl)cc3)cc2)c2c1CCC2 | 3910 | – | 89 | 933
COc1ccc(COc2ccc(CSc3ccc(OCC(=O)O)c4c3CCC4)cc2)cc1 | 4950 | – | 120 | 1970
O=C(O)COc1ccc(SCc2ccc(OCc3ccccc3)cc2)c2c1CCC2 | > 10000 | – | 125 | 2210
O=C(O)COc1ccc(SCc2ccccc2OCc2ccc(C(F)(F)F)cc2)c2c1CCC2 | > 10000 | – | 10.4 | 230
O=C(O)COc1ccc(SCc2ccc(F)cc2OCc2ccc(C(F)(F)F)cc2)c2c1CCC2 | 3110 | – | 62 | –
O=C(O)COc1ccc(SCc2c(F)cccc2OCc2ccc(C(F)(F)F)cc2)c2c1CCC2 | > 10000 | – | 286 | 2610
Cc1cc(SCc2ccc(OCc3ccc(C(F)(F)F)cc3)cc2)c(Cl)cc1OCC(=O)O | 128 | – | 20 | 374
Cc1cc(SCc2ccc(OCc3ccc(C(F)(F)F)cc3)cc2)c2c(c1OCC(=O)O)CCCO2 | 428 | > 10000 | 313 | –
CC(C)(C)c1ccc(COc2ccc(CSc3ccc(OCC(=O)O)c4c3CCC4)cc2)cc1 | 1540 | – | 148 | 267
O=C(O)COc1ccc(SCc2ccc(OCc3ccc(F)cc3C(F)(F)F)cc2)c2c1CCC2 | 3480 | – | 356 | 1720
O=C(O)COc1ccc(SCc2cccc(F)c2OCc2ccc(C(F)(F)F)cc2)c2c1CCC2 | 3670 | – | 111 | –
